In ChEMBL document CHEMBL1201862, “PubChem BioAssay data set” (2004):
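Where inhibition never reached the appropriate level, the endpoint shown equals the highest concentration tested. Otherwise, values were interpolated linearly from a five-concentration, 48-hour dose response in 96-well plates. GI50 is the concentration that inhibits growth by half.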 The source made the active and inactive calls. No stated cut-off is given here; in the data, active = GI50 up to about 1.1 µM and inactive = higher.

How the values were obtained:
Experiment in all cases: growth of human tumour cells (NCI), 48 h
SN12C = test system: SN12C
A498 = test system: A498
Hs-578T = test system: Hs-578T
HCC 2998 = test system: HCC 2998
RPMI-8226 = test system: RPMI-8226
MDA-N = test system: MDA-N
UO-31 = test system: UO-31
SK-OV-3 = test system: SK-OV-3
SNB-75 = test system: SNB-75
OVCAR-5 = test system: OVCAR-5
SW-620 = test system: SW-620
Malme-3M = test system: Malme-3M
SF-539 = test system: SF-539
SK-MEL-2 = test system: SK-MEL-2
MOLT-4 = test system: MOLT-4
T47D = test system: T47D
NCI/ADR-RES = test system: NCI/ADR-RES
TK-10 = test system: TK-10

Measured: GI50

O=c1oc2ccc3ccccc3c2cc1-c1nc2ccccc2o1
inactive: SN12C 22.6 µM | A498 25.9 µM | Hs-578T 21.4 µM | HCC 2998 61.1 µM | RPMI-8226 > 38.8 µM | MDA-N 23.3 µM | UO-31 30.9 µM | SK-OV-3 25.6 µM | SNB-75 17.5 µM | OVCAR-5 > 100 µM | SW-620 21.8 µM | Malme-3M 13.7 µM | SF-539 15.8 µM | SK-MEL-2 20.6 µM | MOLT-4 35.2 µM | T47D 3.17 µM | NCI/ADR-RES 20 µM | TK-10 > 52.1 µM

COc1cc2c(cc1O)NC(=S)[C@@H]1CCCN1C2=O
inactive: SN12C > 100 µM | A498 > 100 µM | Hs-578T > 100 µM | HCC 2998 > 100 µM | RPMI-8226 > 100 µM | MDA-N > 100 µM | UO-31 > 100 µM | SK-OV-3 > 100 µM | SNB-75 > 100 µM | OVCAR-5 > 100 µM | SW-620 > 100 µM | Malme-3M > 100 µM | SF-539 > 100 µM | SK-MEL-2 > 100 µM | MOLT-4 > 100 µM | T47D > 100 µM | NCI/ADR-RES > 100 µM | TK-10 > 100 µM

CCOC(=O)/C(C(=O)Nc1cccc(C(F)(F)F)c1)=C(/N)N1CCCC1
inactive: SN12C 41.9 µM | A498 41.6 µM | Hs-578T 27.2 µM | HCC 2998 > 100 µM | RPMI-8226 > 100 µM | MDA-N > 100 µM | SK-OV-3 52.4 µM | SNB-75 23.4 µM | OVCAR-5 > 100 µM | SW-620 > 100 µM | Malme-3M > 100 µM | SF-539 20.1 µM | SK-MEL-2 > 100 µM | MOLT-4 > 100 µM | T47D 47.8 µM | NCI/ADR-RES > 100 µM | TK-10 > 100 µM

O=C(CCCN1CCC2(CC1)C(=O)NC(=O)N2c1ccccc1)c1ccc(F)cc1
inactive: SN12C > 100 µM | A498 > 100 µM | Hs-578T > 100 µM | HCC 2998 > 100 µM | RPMI-8226 > 100 µM | MDA-N > 100 µM | UO-31 > 100 µM | SK-OV-3 > 100 µM | SNB-75 > 100 µM | OVCAR-5 > 100 µM | SW-620 > 100 µM | Malme-3M > 100 µM | SF-539 > 100 µM | SK-MEL-2 > 100 µM | MOLT-4 > 100 µM | T47D > 100 µM | NCI/ADR-RES > 100 µM | TK-10 > 100 µM

CCN(CC)c1cc2c3c(c1)CCCN3CCC2
inactive: SN12C > 10 µM | A498 > 10 µM | Hs-578T > 10 µM | HCC 2998 > 10 µM | RPMI-8226 > 10 µM | MDA-N > 10 µM | UO-31 > 10 µM | SK-OV-3 > 10 µM | SNB-75 > 10 µM | SW-620 > 10 µM | Malme-3M > 10 µM | SF-539 > 10 µM | SK-MEL-2 > 10 µM | MOLT-4 > 10 µM | T47D > 10 µM | NCI/ADR-RES > 10 µM | TK-10 > 10 µM

Cc1ccc2cccc3c2c1CC1(C3=O)S(=O)(=O)OCCOS1(=O)=O
inactive: SN12C > 100 µM | A498 > 100 µM | Hs-578T > 100 µM | HCC 2998 > 100 µM | RPMI-8226 > 100 µM | MDA-N > 100 µM | UO-31 > 100 µM | SK-OV-3 > 100 µM | SNB-75 > 100 µM | OVCAR-5 > 100 µM | SW-620 > 100 µM | Malme-3M > 100 µM | SF-539 > 100 µM | SK-MEL-2 > 100 µM | MOLT-4 > 100 µM | T47D > 100 µM | NCI/ADR-RES > 100 µM | TK-10 > 100 µM

CN(CCNC(=O)c1cc(-c2ccccc2)nc2ccccc12)CCNC(=O)c1cc(-c2ccccc2)nc2ccccc12
inactive: SN12C > 100 µM | A498 12.2 µM | Hs-578T 6.18 µM | HCC 2998 2.43 µM | RPMI-8226 4.99 µM | MDA-N 11.1 µM | UO-31 7.1 µM | SK-OV-3 > 100 µM | SNB-75 7.53 µM | OVCAR-5 8.55 µM | SW-620 6.12 µM | Malme-3M 2.12 µM | SF-539 7.71 µM | SK-MEL-2 4.41 µM | MOLT-4 4.17 µM | T47D > 30.5 µM | NCI/ADR-RES > 100 µM | TK-10 > 100 µM
